We go through six molecules from paper PMC10244169, “Psychedelics promote plasticity by directly binding to BDNF receptor TrkB” (Nature Neuroscience, 2023).

The target in test [1] is T1, TrkB (Rattus norvegicus, UniProt Q63604).
T1 construct: expressed in transfected cells; host or cells: HEK293T
In words: biochemical. Type of test: binding. To be noted: for displacement of ^3H-LSD from TrkB: 1 nM to 10 µM of drug; for Bmax (specific binding with Hill slope, best-fit) / h (Hill slope, best-fit): ext fig 1f, competition curve, n=5.

The test system of test [2] is dendritic arbor complexity of neuronal cultures. In words: Dendritogenesis (Sholl analysis) in neuronal cultures (WT and Y433F^+/−). Type of test: cell-based, mouse. To be noted: for Sholl analysis, Mean at distance from soma: fig 6j. As for the experimental part: In a separate set of experiments to study the effects of extracellular BDNF and 5-HT2A activation, cultures were also pretreated for 10 min with TrkB.FC (200 ng ml^−1) or M100907 (100 nM), respectively. Similar to treatment with the psychedelics, TrkB.FC and M100907 pretreatments were administered in cumulative doses and remained in the medium for the rest of the experiment. At DIV7, neurons were pre-incubated for 1 h with […] MgCl2 to prevent excitotoxicity, then neurons were transfected for the heterologous expression of mCherry. To minimize any possible interference of the transfection protocol upon the drug effect, transfection was done in the morning while treatment with psychedelics was always added in the evening. Twenty-four hours after transfection, neurons were fixed with 4% PFA for 20 min at room temperature, washed in PBS-T, blocked for 30 min with 3% BSA in PBS-T and incubated with chicken anti-MAP2 (Abcam, ab5392; 1:5,000, 1 h, room temperature). Then, coverslips were washed in PBS-T and incubated with Alexa Fluor 647-conjugated antibody goat anti-chicken (Invitrogen, A-21449; 1:1,000, 1 h, room temperature). Next, coverslips were washed in PBS-T and MilliQ water, and mounted in Dako fluorescence mounting medium (Agilent, S302380-2). Ten optical sections with a Z-step of 1.3 μm were acquired using a Zeiss LSM 710 confocal microscope with a LCI Plan/Neofluar 25×/0.8 lmm Korr DIC M27 objective. In the mCherry channel, the center of the soma was manually assigned and the number of dendritic intersections at fixed distances (every 5 μm) from the soma was automatically counted using the Sholl analysis plugin of ImageJ.

The target in test [3] is T2, TrkB (WT) dimerization (Rattus norvegicus, UniProt Q63604).
T2 construct: expressed in transfected cells; host or cells: N2a
The test is described as follows: Split-luciferase PCA of TrkB dimerization in N2a cells. To be noted: for Group mean (Mean 2; Vehicle:Vehicle = 100), fig 4e: n=48. The class given is cell-based. The procedure:
Ketanserin, M100907 and TRKB.FC were added to the media 10 min before treatment. The PCA method was performed as previously described[11],[75],[76]. Split humanized Gaussia princeps luciferase (hGLuc) was cloned on the C-terminus of the reporter proteins TrkB (WT and Y433F) and lipid raft Fyn. If the reporter proteins that carry complementary halves of the luciferase interact, the enzyme can refold in its functional conformation and, upon addition of its substrate, produce luminescence proportionally to the amount of reporter proteins interacting at a given time. N2a cells were seeded in 96-well plates with opaque walls and transparent bottom (PerkinElmer, ViewPlate 96). Cells were transfected with Lipofectamine 2000 according to the manufacturer’s instructions 24 h post-plating with the PCA pair plasmids: phGLuc(1C)-TrkB(WT) or the mutant phGLuc(1C)-TrkB(Y433F) and phGLuc(2 C)-TrkB(WT) for the dimerization experiments; phGLuc(1C)-lipid raft Fyn and phGLuc(2C)-TrkB(WT) or phGLuc(2C)-TrkB(Y433F) for the lipid raft localization experiments. Forty-eight hours post transfection, cells were treated (40 min, 37 °C) in phenol red-free Dulbecco’s modified Eagle medium without serum. […] The PCA signal was detected with the substrate for the luciferase, native coelenterazine, which was injected into each well directly in the plate reader at a final concentration of […].

Test [4] has as its system spine density of neuronal cultures. In words: Spinogenesis in mature neuronal cultures (WT and Y433F^+/−). The arrangement: 6d: Mean (spinogenesis, spine density) / 6e: Mean (spinogenesis, spine density): unit not given here. Type of test: cell-based, mouse. The procedure:
Spinogenesis experiments were performed similarly to previous studies[12],[13] with modifications. […] In a separate set of experiments to study the effects of extracellular BDNF and 5-HT2A activation, cultures were also pretreated for 10 min with TrkB.FC (200 ng ml^−1) or M100907 (100 nM), respectively. TrkB.FC and M100907 remained in the medium for the rest of the experiment. Twenty-four hours later, coverslips were fixed with 4% PFA, washed with PBS, incubated with blocking buffer (0.1% Triton X-100, 0.05% Tween-20, 10% normal donkey serum, 1% BSA and 0.1% gelatin in PBS) for 1 h at room temperature and then overnight with rabbit anti-MAP2 (Invitrogen, PA5-17646; 1:100) primary antibody at 4 °C. After washing with PBS, coverslips were incubated with CF568-conjugated donkey anti-rabbit (Biotium, 20098; 1:500) for 1 h at room temperature. Another round of PBS washes was followed by incubation with Alexa Fluor 647-conjugated phalloidin (Invitrogen, A22287; 1:40) overnight at 4 °C. Next, coverslips were briefly washed in phosphate buffer (PB) and mounted on slides with ProLong Glass Antifade Mountant (Invitrogen, P36982). We used a Zeiss LSM 880 confocal microscope with an AiryScan GaAsP detector equipped with a PlanApochromat 63×/1.4 NA objective. We used the BP 495–550 + LP 570 AiryScan filter and Zen Black in super-resolution mode for image acquisition. Pinhole size was adapted accordingly, and frame size was set to optimal. Sensors were set to continuous adjustment across the imaging sessions to ensure optimal sensor alignment and signal detection. Raw data were processed into AiryScan images with the autofilter mode on using Zen Blue. Finally, image analysis was performed in ImageJ by experimenters blinded for treatment and genotype. Spines were quantified in 15-µm-long dendrite sections.

Test [5] concerns the target T3, eGFP-tagged TrkB (WT) (Rattus norvegicus, UniProt Q63604).
T3 construct: expressed in transfected cells; host or cells: HEK293T
The test is described as follows: Microscale thermophoresis (MST) in HEK293T lysates. Type of test: binding. To be noted: native (WT) TrkB. As for the experimental part:
MST experiments were performed using the Monolith NT.115 (Blue/Red) instrument (NanoTemper Technologies). Lysates of HEK293T cells expressing GFP-tagged TrkB (WT, Y433F, TrkA.TM) were lysed, vortexed, sonicated and centrifuged 24 h after transient transfection and used as a source of fluorescently labeled TrkB, similarly to previously described protocols[11],[45]–[47]. The advantage of this approach is the possibility of studying the proteins in close-to-native conditions. However, the presence of other proteins, lipids, nucleic acids and other components of crude cell lysates can alter the diffusion of biomolecules and therefore binding affinities. High viscosity and background signal typically results in the affinity values being orders of magnitude […] than those of more traditional binding assays. […] The measurements were performed in premium coated capillaries (NanoTemper Technologies, MO-K025) using a LED source with 470 nm and 50% infrared-laser power at 25 °C. Analysis was performed using MO Affinity Analysis 2.3. Results were fitted to specific binding with Hill slope equations from GraphPad Prism 9.2.

Test [6] addresses T1, TrkB. The test is described as follows: Biotin-labeled BDNF binding to immunoprecipitated TrkB. To be noted: ext fig 1e, n=4. The procedure:
Binding assays were performed as previously described with minor modifications. […] Samples from mouse embryo (E18) brains were also lysed, vortexed, sonicated and centrifuged for binding assays. Plates were then washed with PBS. […] For the competition binding assays with biotinylated R,R-HNK, the amino-biotinylation of R,R-HNK was performed using a commercial kit (Thermo Scientific, EZ-Link NHS-PEG4 Biotinylation Kit, 21455) and the reaction monitored by MS. A mixture of biotinylated R,R-HNK (10 µM) and unlabeled compounds (1 pM to 10 µM) in PBS was added to the 96-well plates containing the immunoprecipitated TrkB and incubated for 1 h at room temperature. […] Luminescence was determined via streptavidin conjugated with horseradish peroxidase (HRP; Thermo Fisher Scientific, 21126; 1:5,000, 1 h at room temperature) in reaction with the Pierce ECL substrate (Thermo Fisher Scientific, 32106). Luminescence from blank wells that contained all reagents but the sample lysates was used to determine nonspecific binding. To obtain the binding curves, results from binding assays were fitted to the equation of specific binding with Hill slope from GraphPad Prism 9.2. To calculate koff values, results were fitted to the equation of dissociation of one phase exponential decay from GraphPad Prism 9.2.

Setting [7] is: TrkB.FC 200 ng ml^−1 or M100907 100 nM.
The mark [8] stands for this setting: treatment alone (other factor Vehicle).

Structures can show the parent of a compound that is named as a salt. Where two headings read alike, the source gives them in different places.

T2 sequence (Q63604 32-821): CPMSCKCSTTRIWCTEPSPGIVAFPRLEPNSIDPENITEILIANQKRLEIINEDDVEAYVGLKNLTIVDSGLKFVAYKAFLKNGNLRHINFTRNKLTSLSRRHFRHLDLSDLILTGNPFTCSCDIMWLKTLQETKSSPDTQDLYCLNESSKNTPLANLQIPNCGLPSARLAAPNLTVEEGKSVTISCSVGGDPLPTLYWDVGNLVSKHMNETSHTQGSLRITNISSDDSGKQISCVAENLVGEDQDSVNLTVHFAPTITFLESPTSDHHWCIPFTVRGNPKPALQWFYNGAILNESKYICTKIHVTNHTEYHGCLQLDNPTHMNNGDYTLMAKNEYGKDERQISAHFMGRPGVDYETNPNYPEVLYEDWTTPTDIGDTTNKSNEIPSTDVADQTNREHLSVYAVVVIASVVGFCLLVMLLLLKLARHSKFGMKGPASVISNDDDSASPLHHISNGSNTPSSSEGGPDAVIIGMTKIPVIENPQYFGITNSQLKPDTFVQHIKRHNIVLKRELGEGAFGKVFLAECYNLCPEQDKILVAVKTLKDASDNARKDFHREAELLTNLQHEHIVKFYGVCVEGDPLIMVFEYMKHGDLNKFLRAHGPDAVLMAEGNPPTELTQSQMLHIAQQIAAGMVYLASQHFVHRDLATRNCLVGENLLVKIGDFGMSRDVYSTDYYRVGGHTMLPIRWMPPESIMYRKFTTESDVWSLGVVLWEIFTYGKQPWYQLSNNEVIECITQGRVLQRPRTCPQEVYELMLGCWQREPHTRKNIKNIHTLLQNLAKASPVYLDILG
T2 sequence (Q63604 32-821): as above
T1 sequence (Q63604 32-821): as above
T3 sequence (Q63604 32-821): as above

On to `CN(C)CCCN1c2ccccc2Sc2ccc(Cl)cc21` [chlorpromazine], for which the “displacement of ^3H-LSD from TrkB” value in test [1] is recorded as “fail to displace ^3H-LSD”. In addition, in test [1] (ext fig 1h), the “Fit status, one phase exponential decay” value was “Interrupted”; the “K (one phase exponential decay, best-fit)” value was 6.169; the “Plateau (one phase exponential decay, best-fit)” value was determined as 142318; the “Span (one phase exponential decay, best-fit)” value is reported as -142224.

Turning to “TrkB.FC: TrkB receptor bodies that sequester extracellular BDNF”, the “effect of pretreatment on LSD effects on dendritogenesis” value in test [2] (setting [7]) is on record as “prevented LSD effects on dendritogenesis”. Also, in test [2] (fig 6i, Bonferroni's multiple comparisons test), the “dendritic arbor complexity, Mean Diff. (Vehicle:vehicle vs. group)” value amounted to 9.033. For the same molecule, the “dendritic arbor complexity, group mean (Mean 2)” value in test [2] (fig 6i, treatment:pretreatment groups, Vehicle:vehicle mean 69.72) amounted to 60.69. Moreover, the “Sholl analysis, Mean at distance from soma” value (“Sholl analysis, Mean” for short) in test [2] (distance from soma 10 µm) is recorded as 6.276; in test [2] (distance from soma 15 µm), 6.586; in test [2] (distance from soma 20 µm) it was 5.414; in test [2] (distance from soma 25 µm) it was 4.966; in test [2] (distance from soma 30 µm), 4.621; in test [2] (distance from soma 35 µm), 3.655. The “Sholl analysis, Mean” value in test [2] (distance from soma 40 µm) is given as 3.414; in test [2] (distance from soma 45 µm), 2.655; in test [2] (distance from soma 50 µm), 2.724; in test [2] (distance from soma 55 µm), 2.759; in test [2] (distance from soma 60 µm), 2.2069; in test [2] (distance from soma 65 µm), 2.241. The “Sholl analysis, Mean” value is listed as 2.172 in test [2] (distance from soma 70 µm); 1.897 in test [2] (distance from soma 75 µm); 1.862 in test [2] (distance from soma 80 µm); 2.034 in test [2] (distance from soma 85 µm); 1.931 in test [2] (distance from soma 90 µm); 1.621 in test [2] (distance from soma 95 µm). Besides, the “Sholl analysis, Mean” value in test [2] (distance from soma 100 µm) was 1.655. Besides, in test [3] (ketanserin 100 nM, M100907 100 nM or TrkB.FC 200 ng ml^−1, 10 min before), the “effect of pretreatment on LSD- and BDNF-induced TrkB dimerization” value is “prevents the effects of LSD and BDNF on TrkB dimerization”. Also, the “Group mean (Mean 2; Vehicle:Vehicle = 100), fig 4e” value (from here on “Group mean … fig 4e”) in test [3] (setting [8]) amounted to 100. For the same molecule, the “effect of pretreatment on spinogenic effect of LSD” value in test [4] (setting [7]) is recorded as “prevented the spinogenic effect of LSD”. In addition, the “6e: Mean Diff. (Vehicle:Vehicle vs. treatment), Bonferroni's multiple comparisons test” value in test [4] (substance alone (with vehicle)) is -0.45. Further, the “6e: Mean (spinogenesis, spine density)” value in test [4] (substance alone (with vehicle), Vehicle:Vehicle mean 7.05) is listed as 7.5.

For `CNC1(c2ccccc2Cl)CCCCC1=O` (centres unmarked) [ketamine, Ketamine hydrochloride], in test [1], the Ki was determined as 20800 ± 8860 nM; the “Bmax (specific binding with Hill slope, best-fit)” value came to 98.59; the “h (Hill slope, best-fit)” value is -0.5468.

Consider `N[C@@]1(c2ccccc2Cl)CCC[C@@H](O)C1=O` [R,R-HNK, 2R,6R-hydroxynorketamine], for which, in test [1] (displacement of ^3H-LSD, read-out: Ki), the inhibition constant (Ki) is 166 ± 21.1 nM. For the same molecule, in test [1], the “Bmax (specific binding with Hill slope, best-fit)” value came to 107.6 and the “h (Hill slope, best-fit)” value is on record as -0.8819.

For `CN1C(=O)CN=C(c2ccccc2)c2cc(Cl)ccc21` [diazepam], the “displacement of ^3H-LSD from TrkB” value in test [1] was “fail to displace ^3H-LSD”. The “Fit status, one phase exponential decay” value in test [1] (ext fig 1h) is recorded as “Not converged”.

B1: BDNF: Brain-derived neurotrophic factor (protein, UniProt P23560 19-247, looked up)
Neurotrophic factor BDNF …: APMKEANIRGQGGLAYPGVRTHGTLESVNGPKAGSRGLTSLADTFEHVIEELLDEDQKVRPNEENNKDADLYTSRVMLSSQVPLEPPLLFLLEEYKNYLDAANMSMRVRRHSDPARRGELSVCDSISEWVTAADKKTAVDMSGGTVTVLEKVPVSKGQLKQYFYETKCNPMGYTKEGCRGIDKRHWNSQCRTTQSYVRALTMDSKKRIGWRFIRIDTSCVCTLTIKRGR
Regarding B1, the “binding by MST” value in test [5] was “induces a shift in fluorescence”. In addition, the “Group mean (Mean 2; Control:Vehicle = 100), fig 4f” value in test [3] (BDNF 0.1ng/ml, Control (no LSD), n=8) was 147.4. The “Group mean … fig 4e” value in test [3] (setting [8]) was 144.1. In test [3] (with TrkB.FC), the “Group mean … fig 4e” value was found to be 103. In test [6], the “Bmax (specific binding with Hill slope, best-fit)” value was found to be 7.546 and the “h (Hill slope, best-fit)” value turned out to be 0.8134. Moreover, the Kd in test [6] (read-out: Kd (specific binding with Hill slope, best-fit)) is 1220 nM.
